These are literature values, as cited in patent US7858379B2, “Apparatus and method for determining the concentration of iodine-containing organic compounds in an aqueous solution” (Lynntech, Inc., priority 2007, dated 2010).

Each structure is given as a SMILES string.

For data set [1] the following is noted: through the process of glomerular filtration.

`CC(=O)N(CC(O)CO)c1c(I)c(C(=O)NCC(O)CO)c(I)c(C(=O)NCC(O)CO)c1I` (stereo not shown) [Iohexol]: the protein binding entry is listed as “do not bind to protein”. The excretion result in data set [1] is recorded as “totally excreted by the kidney”.
As to `CNC(=O)c1c(I)c(NC(C)=O)c(I)c(C(=O)O)c1I` [Iothalamate], the protein binding result is listed as “do not bind to protein”. The excretion result in data set [1] is “totally excreted by the kidney”.
